{"source": "patent US20200246465A1", "about": "“USE OF TRYPTOPHAN DERIVATIVES FOR PROTEIN FORMULATIONS” (Genentech, Inc., priority 2015, published 2020)", "key": {"[1]": {"experiment": "Real time stability of NAT in drug product formulations", "type": "physicochemical", "experimental": "NAT and NAT degradants were separated on an Agilent 1200 series HPLC or Waters H Class UPLC using an Agilent ZORBAX SB-C18 3.5 μm, 4.6×75 mm reverse phase column. Column temperature was held at 30±0.8° C. by a thermostat controller. The gradients used for HPLC and UPLC are listed in Tables 5 and 6, respectively (note: the shorter gradient on the UPLC was designed to accommodate earlier retention times and the column re-equilibration period was elongated due to the larger range of system pressure at a flow rate of 1.0 ml/min). NAT degradation products were detected at 240 nm. The standard bandwidth setting (8 nm for Agilent 1200 HPLC, 4.8 nm for Waters H-Class) was used for analysis on each instrument. The autosampler was maintained at 5±3° C. 10 nmol of NAT and/or NAT degradants (50 μl for most samples) was injected on to the column for analysis. The chromatograms were processed using Dionex Chromeleon software. Protein-containing samples were diluted in guanidine and the proteins removed via ultra-filtration (Amicon spin filters with a 30 kDa molecular weight cut-off). […] Using the final sample preparation conditions, recovery of NAT was 94-99% for three tested antibody/antibody derivatives and recovery of NAT degradants was 98-100% (data not shown). With this model experience in hand, the amount of NAT oxidation expected to occur in the manufacturing and storage of mAbs was explored next. FIG. 12 illustrates the comparison of the AAPH model stress system with an antibody at 150 mg/ml (1.0 mM) co-formulated with NAT, Met, and other excipients typical of mAb formulations. Results are shown for the initial time point, at −20° C. and 5° C. for six months (representative of typical storage conditions), and 25° C. for 6 months (representative of accelerated stability conditions). Oxidation levels were negligible directly after manufacturing and under the typical storage conditions tested."}, "[2]": {"experiment": "AAPH stress of proteins with or without NAT, site-specific Trp oxidation by LC-MS tryptic peptide mapping", "type": "physicochemical", "conditions": "Mab2 W53 and W106, Mab4 W52, Mab1 W103, Mab6 W103/104; 1 mM AAPH; NAT 0.05-1 mM", "experimental": "Proteins Mab1, Mab2, and Mab3/Mab4 were dialyzed into a sodium acetate buffer (20 mM sodium acetate pH 5.5) and Mab5/Mab6 was dialyzed into a histidine-based buffer (20 mM histidine hydrochloride pH 5.5). Protein solutions were diluted to a final concentration of 1 mg/mL protein in the corresponding buffer and 1 mM 2,2′-Azobis(2-amidinopropane) dihydrochloride (AAPH) was added. N-acetyl-Trp (NAT) was added from a concentrated stock solution to each protein solution at concentrations from 0 to 5 mM. Samples were incubated at 40° C. for 16 hours followed by quenching with methionine and buffer exchange to the initial dialysis buffer plus 100 mM sucrose.\nSite-specific modifications of AAPH-stressed samples of Mab2, Mab1, and Mab3/Mab4 were monitored using a microscale tryptic peptide digest followed by liquid chromatography-mass spectrometry (LC-MS) (Anderson, N. et al., Nov. 20, 2014, American Pharmaceutical Review). […]\nPeptide mapping of each digested sample was performed on a Waters Acquity H-Class UHPLC coupled to a Thermo Q Exactive Plus high resolution mass spectrometry system (HRMS). […] Column effluent was monitored at 214 nm. […] The oxidation level at each site was determined by extracted ion chromatography (EIC) using the Thermo XCalibur biopharmaceutical characterization software. […]"}}}
{"smiles": "CC(=O)N[C@@H](Cc1c[nH]c2ccccc12)C(=O)O", "note": "[NAT, N-acetyl-tryptophan]", "values": [{"measurement": "loss of NAT", "setting": "[1]; 3 months at 25° C., corresponding vehicle (formulation without protein)", "value": 1, "unit": "%"}, {"measurement": "NAT loss", "setting": "[1]; 3 months at 25° C., protein containing sample (antibody 150 mg/ml, NAT, Met, excipients)", "value": 7.5, "unit": "%"}, {"measurement": "NAT oxidation levels", "setting": "[1]; directly after manufacturing and at −20° C. and 5° C. for six months, antibody 150 mg/ml co-formulated with NAT, Met", "value": "negligible"}, {"measurement": "total NAT loss", "setting": "[1]; six months at 25° C., antibody at 150 mg/ml (1.0 mM) co-formulated with NAT, Met and other excipients", "value": 16.8, "unit": "%"}, {"measurement": "NAT degradation", "setting": "[1]; vehicle (formulation without protein) at higher temperatures", "value": "minimal NAT degradation"}, {"measurement": "NAT protection from AAPH-induced oxidation of oxidation-prone tryptophan residues", "setting": "[2]", "value": "able to protect each tested residue from oxidation"}]}
